This is an account of results in ChEMBL document CHEMBL4219138, “Discovery of N-aryl-N'-pyrimidin-4-yl ureas as irreversible L858R/T790M mutant selective epidermal growth factor receptor inhibitors” (Bioorg Med Chem Lett, 2018).

Some results are limits rather than exact numbers.

Assay [1] has as its system A-431. Briefly: Antiproliferative activity against human A431 cells harboring wild-type EGFR after 72 hrs by MTT assay. It is filed as functional, cell-based. The settings on record: A-431, 72 h. (In general: Tetrazolium dyes change colour on reduction, which living cells bring about.)
Assay [2] relates to NCI-H1975. Briefly: Antiproliferative activity against human NCI-H1975 cells harboring EGFR L858R/T790M mutant after 72 hrs by MTT assay. It is filed as functional, cell-based. The settings on record: NCI-H1975, 72 h.
In assay [3] the target is T1, Epidermal growth factor receptor (Homo sapiens, UniProt P00533). Briefly: Inhibition of recombinant human GST-tagged wild-type EGFR cytoplasmic domain (668 to 1210 residues) expressed in baculovirus expression system using tyrosine04 peptide as substrate after 60 mins in presence of ATP by Z-LYTE assay.
The target in assay [4] is T2, Epidermal growth factor receptor (Homo sapiens, UniProt P00533, L858R/T790M). Nature of the assay: Inhibition of EGFR L858R/T790M mutant phosphorylation in human NCI-H1975 cells after 1 hr by ELISA. It counts as cell-based. In general terms: ELISA stands for enzyme-linked immunosorbent assay.
In assay [5] the target is T1, Epidermal growth factor receptor. Briefly: Inhibition of wild-type EGFR phosphorylation in human A431 cells preincubated for 1 hr followed by EGF stimulation measured after 45 mins by ELISA. It is filed as cell-based.
Assay [6] deals with T2, Epidermal growth factor receptor. Briefly: Inhibition of recombinant human GST-tagged EGFR L858R/T790M mutant cytoplasmic domain (668 to 1210 residues) expressed in baculovirus expression system using tyrosine04 peptide as substrate after 60 mins in presence of ATP by Z-LYTE assay.
Assay [7] is described as follows: Selectivity ratio of IC50 for human A431 cells harboring wild-type EGFR to IC50 for human NCI-H1975 cells harboring EGFR L858R/T790M mutant. It counts as functional.

T1 sequence (P00533 whole entry, the tested form may be a part): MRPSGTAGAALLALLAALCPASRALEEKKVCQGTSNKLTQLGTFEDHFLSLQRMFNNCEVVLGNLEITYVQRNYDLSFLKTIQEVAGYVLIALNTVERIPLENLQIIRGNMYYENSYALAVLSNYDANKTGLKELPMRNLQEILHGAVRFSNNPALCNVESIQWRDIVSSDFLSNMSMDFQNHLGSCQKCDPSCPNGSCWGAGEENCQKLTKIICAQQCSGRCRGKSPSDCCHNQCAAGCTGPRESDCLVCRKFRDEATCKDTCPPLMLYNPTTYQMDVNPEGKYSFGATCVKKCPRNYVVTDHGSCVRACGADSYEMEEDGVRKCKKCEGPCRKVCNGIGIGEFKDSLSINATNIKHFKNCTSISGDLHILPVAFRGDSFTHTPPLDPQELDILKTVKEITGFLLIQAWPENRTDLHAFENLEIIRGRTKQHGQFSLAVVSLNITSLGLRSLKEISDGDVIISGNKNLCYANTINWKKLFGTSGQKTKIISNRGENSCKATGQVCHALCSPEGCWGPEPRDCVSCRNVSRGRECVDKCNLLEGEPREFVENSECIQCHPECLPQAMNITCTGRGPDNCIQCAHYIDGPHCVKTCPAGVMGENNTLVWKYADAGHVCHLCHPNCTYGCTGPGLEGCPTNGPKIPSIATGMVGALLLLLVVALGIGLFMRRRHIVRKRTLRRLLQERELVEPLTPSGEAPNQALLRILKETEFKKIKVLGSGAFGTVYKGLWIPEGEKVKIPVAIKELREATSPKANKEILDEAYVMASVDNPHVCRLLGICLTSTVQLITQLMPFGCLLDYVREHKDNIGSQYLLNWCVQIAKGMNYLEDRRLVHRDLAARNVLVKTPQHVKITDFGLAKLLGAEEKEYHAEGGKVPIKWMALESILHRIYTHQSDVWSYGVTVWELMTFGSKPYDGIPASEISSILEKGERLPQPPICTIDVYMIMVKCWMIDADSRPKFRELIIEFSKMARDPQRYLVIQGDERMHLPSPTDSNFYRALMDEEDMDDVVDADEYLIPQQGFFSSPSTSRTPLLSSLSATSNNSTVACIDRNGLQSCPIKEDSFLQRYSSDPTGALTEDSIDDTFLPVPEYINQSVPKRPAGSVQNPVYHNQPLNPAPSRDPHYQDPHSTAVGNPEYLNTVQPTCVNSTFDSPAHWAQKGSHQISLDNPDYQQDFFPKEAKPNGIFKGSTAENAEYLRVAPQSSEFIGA
T2 sequence (P00533 25-1210 T790M/L858R limits assumed): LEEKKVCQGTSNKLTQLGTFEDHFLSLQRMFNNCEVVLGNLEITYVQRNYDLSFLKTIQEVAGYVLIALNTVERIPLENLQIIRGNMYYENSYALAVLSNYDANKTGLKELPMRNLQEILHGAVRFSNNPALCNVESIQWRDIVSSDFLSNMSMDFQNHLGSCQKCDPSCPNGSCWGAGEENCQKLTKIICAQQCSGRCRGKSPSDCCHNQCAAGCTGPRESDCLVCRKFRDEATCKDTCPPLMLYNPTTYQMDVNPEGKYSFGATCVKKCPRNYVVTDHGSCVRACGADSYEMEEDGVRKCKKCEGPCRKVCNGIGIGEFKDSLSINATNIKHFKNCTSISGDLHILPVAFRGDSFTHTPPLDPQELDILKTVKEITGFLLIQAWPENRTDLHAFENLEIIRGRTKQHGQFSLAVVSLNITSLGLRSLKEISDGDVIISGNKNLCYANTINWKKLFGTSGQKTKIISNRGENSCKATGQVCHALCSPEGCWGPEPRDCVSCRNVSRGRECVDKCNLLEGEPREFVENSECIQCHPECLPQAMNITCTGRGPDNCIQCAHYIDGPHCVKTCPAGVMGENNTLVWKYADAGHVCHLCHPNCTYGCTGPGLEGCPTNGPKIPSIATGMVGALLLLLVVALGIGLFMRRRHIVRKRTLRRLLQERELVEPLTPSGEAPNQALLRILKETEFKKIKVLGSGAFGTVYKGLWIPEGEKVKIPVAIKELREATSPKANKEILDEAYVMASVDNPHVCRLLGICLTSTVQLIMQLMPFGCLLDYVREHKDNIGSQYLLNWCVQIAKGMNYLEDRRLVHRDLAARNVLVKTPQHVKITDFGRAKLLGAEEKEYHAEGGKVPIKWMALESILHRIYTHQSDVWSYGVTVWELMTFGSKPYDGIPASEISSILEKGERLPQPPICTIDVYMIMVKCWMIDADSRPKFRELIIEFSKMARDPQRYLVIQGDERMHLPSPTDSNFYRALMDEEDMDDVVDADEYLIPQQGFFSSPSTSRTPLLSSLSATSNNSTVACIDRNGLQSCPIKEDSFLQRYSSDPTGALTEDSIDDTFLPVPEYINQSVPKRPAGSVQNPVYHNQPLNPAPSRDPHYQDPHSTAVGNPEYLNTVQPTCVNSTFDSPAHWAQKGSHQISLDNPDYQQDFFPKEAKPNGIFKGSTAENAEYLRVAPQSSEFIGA

On to `C=CC(=O)Nc1cccc(Oc2nc(Nc3ccc(N4CCN(C)CC4)cc3OC)ncc2Cl)c1`, for which the 50% inhibitory concentration (IC50) (commonly the concentration at which inhibition is half-maximal) worked out at 1.24 µM in assay [1] and 0.027 µM in assay [2].

Consider `C=CC(=O)Nc1cccc(Oc2nc(Nc3ccc(N4CCN(C(C)=O)CC4)cc3OC)ncc2C(F)(F)F)c1`, for which the IC50 in assay [3] amounted to 0.067 µM; in assay [4], 0.132 µM; in assay [1], 2.53 µM; in assay [5], 1.03 µM; in assay [6], 0.007 µM; in assay [2], 0.117 µM.

As to `C=CC(=O)Nc1cccc(NC(=O)N(C)c2ccnc(Nc3ccc(N4CCN(C)CC4)cc3OC)n2)c1`, the half-inhibitory concentration (IC50) in assay [3] and in assay [6] was greater than 1 µM each time.

In the case of `C=CC(=O)Nc1cccc(NC(=O)Nc2ccnc(Nc3ccc(N4CCC(N5CCN(C)CC5)CC4)cc3OC)n2)c1`, the IC50 stood at 0.08 µM in assay [3]; 0.105 µM in assay [4]; 2.34 µM in assay [5]; 0.005 µM in assay [6]; 0.106 µM in assay [2].

As for `C=CC(=O)Nc1cccc(NC(=O)Nc2ccnc(Nc3ccc(N4CCC(N(C)C)CC4)cc3OC)n2)c1`, the half-inhibitory concentration (IC50) is 0.045 µM in assay [3]; 0.082 µM in assay [4]; 3.38 µM in assay [1]; 1.54 µM in assay [5]; 0.002 µM in assay [6]; 0.107 µM in assay [2].

In the case of `C=CC(=O)Nc1cccc(NC(=O)Nc2ccnc(Nc3ccc(N(C)CCN(C)C)cc3OC)n2)c1`, the IC50 in assay [3] amounted to 0.049 µM; in assay [4], 0.43 µM; in assay [1] it was 3.4 µM; in assay [5] it was 1.7 µM; in assay [6] it was 0.019 µM; in assay [2], 0.502 µM.

As for `C=CC(=O)Nc1cccc(NC(=O)Nc2ccnc(Nc3ccc(N(C)C)cc3)n2)c1`, the IC50 in assay [3] was found to be 0.462 µM; in assay [6] it was 0.17 µM.

As to `C=CC(=O)Nc1cccc(NC(=O)Nc2ccnc(Nc3ccc(C4CCN(C)CC4)cc3)n2)c1`, the concentration for half-maximal inhibition (IC50) in assay [3] was greater than 1 µM; in assay [6], 0.51 µM.

Regarding `C=CC(=O)Nc1cccc(NC(=O)Nc2ccnc(Nc3ccc(N4CCC(N5CCOCC5)CC4)cc3OC)n2)c1`, the IC50 in assay [3] was 0.086 µM; in assay [4] it was 0.041 µM; in assay [1] it was greater than 10 µM; in assay [5], 6.46 µM; in assay [6], 0.004 µM; in assay [2], 0.037 µM. In addition, in assay [7], the “Ratio IC50” value is reported as greater than 270.

For the compound `C=CC(=O)Nc1cccc(NC(=O)Nc2ccnc(Nc3ccc(C(=O)N4CCN(C)CC4)cc3OC)n2)c1`, the IC50 in assay [3] amounted to 0.972 µM; in assay [6] it was 0.215 µM.

`C=CC(=O)Nc1cccc(NC(=O)Nc2nc(Nc3ccc(N4CCC(N5CCOCC5)CC4)cc3OC)ncc2C(F)(F)F)c1`: the IC50 is greater than 1 µM in assay [3] and 0.27 µM in assay [6].

In the case of `C=CC(=O)Nc1cccc(NC(=O)Nc2ccnc(Nc3ccc(C4CCN(C)CC4)cc3OC)n2)c1`, the IC50 in assay [3] was 0.273 µM; in assay [4] it was 0.13 µM; in assay [1], greater than 10 µM; in assay [5] it was 5 µM; in assay [6], 0.028 µM; in assay [2] it was 0.075 µM.

`C=CC(=O)Nc1cccc(NC(=O)Nc2nc(Nc3ccc(N4CCC(N5CCOCC5)CC4)cc3OC)ncc2Cl)c1`: the IC50 in assay [3] was determined as 0.641 µM; in assay [4], 0.131 µM; in assay [1] it was 2.59 µM; in assay [5], 2.21 µM; in assay [6], 0.037 µM; in assay [2], 0.199 µM.

On to `C=CC(=O)Nc1cccc(NC(=O)C(C)(C)c2ccnc(Nc3ccc(N4CCN(C)CC4)cc3OC)n2)c1`, for which the IC50 in assay [3] and in assay [6] was greater than 1 µM in each case.

On to `C=CC(=O)Nc1cccc(NC(=O)Nc2ccnc(Nc3ccc(N4CCOCC4)cc3OC)n2)c1`, for which the concentration for half-maximal inhibition (IC50) in assay [3] was 0.225 µM; in assay [4] it was 0.218 µM; in assay [5], greater than 10 µM; in assay [6], 0.015 µM; in assay [2], 0.173 µM.

Turning to `C=CC(=O)Nc1cccc(NC(=O)Nc2ccnc(Nc3ccc(N4CCN(C)CC4)cc3)n2)c1`, the IC50 in assay [3] came to 0.143 µM; in assay [4], 3.15 µM; in assay [6], 0.048 µM; in assay [2], 1.93 µM.

As for `C=CC(=O)Nc1cccc(NC(=O)Nc2ccnc(Nc3ccc(N4CCOCC4)cc3)n2)c1`, the half-inhibitory concentration (IC50) was 0.644 µM in assay [3]; greater than 10 µM in assay [4]; greater than 10 µM in assay [1]; greater than 10 µM in assay [5]; 0.087 µM in assay [6]; 7.52 µM in assay [2].

For `C=CC(=O)Nc1cccc(NC(=O)Nc2ccnc(Nc3ccccc3OC)n2)c1`, the half-inhibitory concentration (IC50) is greater than 1 µM in assay [3] and 0.192 µM in assay [6].

For `C=CC(=O)Nc1cccc(NC(=O)Nc2ccnc(Nc3ccc(N4CCN(CCF)CC4)cc3OC)n2)c1`, the half-inhibitory concentration (IC50) is 0.158 µM in assay [3]; 0.511 µM in assay [4]; greater than 10 µM in assay [5]; 0.022 µM in assay [6]; 0.519 µM in assay [2].

On to `C=CC(=O)Nc1cccc(NC(=O)Nc2ccnc(Nc3ccc(OC)cc3OC)n2)c1`, for which the half-maximal inhibitory concentration (IC50) in assay [3] was 0.348 µM; in assay [4], 0.391 µM; in assay [6] it was 0.058 µM; in assay [2], 0.467 µM.

As to `C=CC(=O)Nc1cccc(NC(=O)Nc2ccnc(Nc3ccc(OCCOC)cc3)n2)c1`, the concentration for half-maximal inhibition (IC50) is greater than 1 µM in assay [3] and 0.266 µM in assay [6].

Regarding `C=CC(=O)Nc1cccc(NC(=O)Nc2ccnc(Nc3ccc(N4CCC(N(CC)CC)CC4)cc3OC)n2)c1`, the values for the half-inhibitory concentration (IC50) in assay [1] and in assay [2] were 2.01 µM and 0.031 µM, respectively.

For `C=CC(=O)NC1CCCN(C(=O)Nc2ccnc(Nc3ccc(N4CCN(C)CC4)cc3OC)n2)C1` (centres undefined), the IC50 in assay [3] and in assay [6] was greater than 1 µM throughout.

In the case of `C=CC(=O)Nc1cccc(NC(=O)Nc2ccnc(Nc3ccc(N4CCN(C)CC4)cc3OC)n2)c1`, the 50% inhibitory concentration (IC50) is 0.017 µM in assay [3], 0.906 µM in assay [4], 0.017 µM in assay [6] and 0.525 µM in assay [2].

With `C=CC(=O)Nc1cccc(NC(=O)Nc2ccnc(Nc3ccc(C(=O)N4CCOCC4)cc3OC)n2)c1`, the half-inhibitory concentration (IC50) in assay [3] was greater than 1 µM; in assay [6], 0.128 µM.

Turning to `C=CC(=O)Nc1cccc(NC(=O)Nc2ccnc(Nc3ccc(N(CC)CC)cc3OC)n2)c1`, the half-inhibitory concentration (IC50) in assay [3] was 0.183 µM; in assay [4], 0.112 µM; in assay [1], greater than 10 µM; in assay [5], greater than 10 µM; in assay [6], 0.012 µM; in assay [2], 0.086 µM.

With `C=CC(=O)Nc1cccc(NC(=O)C2(C(=O)Nc3ccnc(Nc4ccc(N5CCN(C)CC5)cc4OC)n3)CC2)c1`, the IC50 in assay [3] and in assay [6] was greater than 1 µM in each case.

In the case of `C=CC(=O)Nc1cc(Nc2nccc(-c3cn(C)c4ccccc34)n2)c(OC)cc1N(C)CCN(C)C` [OSIMERTINIB], the concentration for half-maximal inhibition (IC50) was found to be […] in assay [1] and […] in assay [2].
